Laboratory results published in patent publication US4751222A, “2,3,4,5-tetrahydro-1H-3-benzazepines and CNS affecting use thereof” (Novo Industri A/S, priority 1985, dated 1988).
Where a name gives a salt, the structure may show the parent alone. Read-outs that look alike come from different tables or passages of the source. Each block holds one compound with its values, some of them ahead of it.

Tests used:
dopamine D1 = conditions: cited from earlier work
dopamine D1 receptor = dopamine D1 receptor (Rattus norvegicus, UniProt P18901); assay: biochemical; conditions: read-out: Ki, dopamine stimulated adenylate cyclase
Sequence of dopamine D1 receptor (P18901 whole entry): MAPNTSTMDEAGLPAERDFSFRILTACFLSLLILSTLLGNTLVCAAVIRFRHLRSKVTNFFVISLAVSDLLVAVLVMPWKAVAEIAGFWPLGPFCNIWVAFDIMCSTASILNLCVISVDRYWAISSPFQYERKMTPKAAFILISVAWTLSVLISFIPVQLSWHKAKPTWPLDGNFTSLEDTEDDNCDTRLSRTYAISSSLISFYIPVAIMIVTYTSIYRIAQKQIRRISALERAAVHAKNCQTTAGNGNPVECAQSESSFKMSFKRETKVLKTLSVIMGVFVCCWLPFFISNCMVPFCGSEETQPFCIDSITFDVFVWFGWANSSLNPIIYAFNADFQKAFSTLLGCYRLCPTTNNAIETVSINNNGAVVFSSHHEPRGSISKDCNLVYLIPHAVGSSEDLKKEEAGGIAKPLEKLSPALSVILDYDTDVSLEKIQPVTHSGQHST
Description: Ki is the affinity of the tested compound for the dopamine D1 receptor as estimated from Schild analysis.

mice = assay: acute toxicity in mice, intraperitoneal; type: in vivo; conditions: 100 mg/kg intraperitoneal
Method: (§1) 8-chloro-7-hydroxy-3-methyl-5-(5-indanyl)-2,3,4,5-tetrahydro-1H-3-benzazepine and several other compounds of formula I were atoxic when given to rats and mice in a dosis of 100 mg/kg intraperitonealt.

rats = assay: acute toxicity in rats, intraperitoneal; type: in vivo; conditions: 100 mg/kg intraperitoneal
Method: as §1

[1] = Life Sci. 34 (1984), 1529; cited from earlier work
[2] = Life Sci. 31 (1982), 637 et seq.

Compound: 2,3,4,5-tetrahydro-9-chloro-7,8-dihydroxy-1-(4-hydroxyphenyl)-1H-3-benzazepine [SKF 82526]
dopamine D1 activity (dopamine D1; [2]): selective but partial dopamine D1 agonists

Ki (dopamine D1 receptor): 10 nM
Compound: CN1CCc2cc(Cl)c(O)cc2C(c2ccc(Cl)c3c2OCCC3)C1 (racemic) [Example No. 5f, 8-chloro-7-hydroxy-3-methyl-5-(5-chlorochroman-8-yl)-2,3,4,5-tetrahydro-1H-3-benzazepine]

Ki (dopamine D1 receptor): 6 nM
Compound: CN1CCc2cc(Cl)c(O)cc2C(c2cccc3ccoc23)C1 (racemic) [Example No. 5h, 8-chloro-7-hydroxy-3-methyl-5-(7-benzofuranyl)-2,3,4,5-tetrahydro-1H-3-benzazepine]

Ki (dopamine D1 receptor): 21 nM
Compound: CN1CCc2cc(Cl)c(O)cc2C(c2ccc3c(c2)CCCC3)C1 (racemic) [Example No. 5j, 8-chloro-7-hydroxy-5-(1,2,3,4-tetrahydronaphth-6-yl)-3-methyl-2,3,4,5-tetrahydro-1H-3-benzazepine hydrochloride]

Compound: Br.CN1CCc2cc(Cl)c(O)cc2C(c2ccc3c(c2)CCC3)C1 (stereo not shown) [Example No. 5a, 8-chloro-7-hydroxy-3-methyl-5-(5-indanyl)-2,3,4,5-tetrahydro-1H-3-benzazepine hydrobromide]
toxicity in mice (mice): atoxic
toxicity in rats (rats): atoxic

Compound: CN1CCc2cc(Cl)c(O)cc2[C@@H](c2ccccc2)C1 [SCH 23390, R-8-chloro-7-hydroxy-2,3,4,5-tetrahydro-3-methyl-5-phenyl-1H-3-benzazepine]
duration of action [1]: short duration of action
peroral adsorption [1]: poor peroral adsorption
dopamine D1 activity (dopamine D1; Eur.J.Pharmacol. 91 (1983), 153 et seq.): selective D1 dopamine antagonist

Compound: Oc1cc2c(cc1O)C(c1ccccc1)CNCC2 (stereo not shown) [SKF 38393, 2,3,4,5-tetrahydro-7,8-dihydroxy-1-phenyl-1H-3-benzazepine]
dopamine D1 activity (dopamine D1; [2]): selective but partial dopamine D1 agonists
